The text below walks through data of US12461089B2, “Olfactory receptor involved in the perception of musk fragrance and the use thereof” (ChemoSensoryX Biosciences SA, priority 2017, dated 2025).

One may read the EC50 as the concentration at which the effect is half-maximal.

Type in all cases: cell-based
The target of assay [1] is T1, OR5AN1 (Homo sapiens, UniProt Q8NGI8, E89G).
T1 construct: expressed in transfected cells; host or cells: HEK293T-RTP1A1/RTP2
T1 sequence (Q8NGI8 1-311 E89G): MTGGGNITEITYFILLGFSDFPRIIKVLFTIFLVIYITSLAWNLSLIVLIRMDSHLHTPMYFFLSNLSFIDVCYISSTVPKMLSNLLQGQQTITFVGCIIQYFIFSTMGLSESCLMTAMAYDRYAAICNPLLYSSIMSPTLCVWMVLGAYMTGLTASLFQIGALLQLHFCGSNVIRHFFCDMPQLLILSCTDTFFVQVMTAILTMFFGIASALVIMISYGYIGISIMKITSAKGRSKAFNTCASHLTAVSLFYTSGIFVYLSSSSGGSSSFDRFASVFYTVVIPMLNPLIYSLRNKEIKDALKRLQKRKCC
The experiment in a line: Luciferase reporter concentration-response analysis on OR5AN1.

For assay [2], the target named is T2, OR5A2_variant 1 (Homo sapiens, UniProt Q8NGI9).
T2 construct: expressed in transfected cells; host or cells: HEK293T-RTP1A1/RTP2
T2 sequence (Q8NGI9 1-324): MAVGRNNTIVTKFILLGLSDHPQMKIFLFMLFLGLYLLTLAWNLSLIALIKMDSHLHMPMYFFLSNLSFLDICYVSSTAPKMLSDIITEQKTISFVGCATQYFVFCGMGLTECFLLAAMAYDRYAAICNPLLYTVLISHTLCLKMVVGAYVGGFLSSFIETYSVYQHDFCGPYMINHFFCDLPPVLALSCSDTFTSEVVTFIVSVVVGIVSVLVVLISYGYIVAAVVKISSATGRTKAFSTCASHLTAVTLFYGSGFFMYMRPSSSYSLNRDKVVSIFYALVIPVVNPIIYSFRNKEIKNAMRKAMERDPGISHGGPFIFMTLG
The experiment in a line: Luciferase reporter concentration-response analysis on OR5A2_variant 1. The following applies: for activation of OR5A2 (OR5A2_variant 1), concentration-response: CRE-luciferase, semi-logarithmic serial dilutions, empty vector pEFIBRHO as control. On the technique in general: Reporter assays use an easily measured gene product as a stand-in for the process of interest.

Assay [3] has as its target T3, chimeric OR5A2_variant 1 (Homo sapiens, UniProt Q8NGI9, F293L/H55R/I289L/M58T).
T3 construct: expressed in transfected cells; host or cells: HEK293T-RTP1A1/RTP2
T3 sequence (Q8NGI9 with tags, fused parts or gaps H55R/M58T/I289L/F293L): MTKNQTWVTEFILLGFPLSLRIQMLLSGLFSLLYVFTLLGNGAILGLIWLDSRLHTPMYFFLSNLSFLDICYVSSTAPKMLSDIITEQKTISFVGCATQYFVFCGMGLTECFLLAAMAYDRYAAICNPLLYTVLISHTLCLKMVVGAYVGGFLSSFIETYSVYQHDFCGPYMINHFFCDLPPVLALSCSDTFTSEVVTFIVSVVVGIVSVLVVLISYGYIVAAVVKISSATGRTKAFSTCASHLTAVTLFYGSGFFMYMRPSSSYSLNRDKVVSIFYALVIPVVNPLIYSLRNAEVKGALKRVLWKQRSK
The experiment in a line: Luciferase reporter concentration-response analysis on chimeric OR5A2_variant 1. The settings on record: CRE-luciferase; empty vector pEFIBRHO as control. Here is the method: HEK293T-RTP1A1/RTP2 cells were maintained in minimal essential medium (EMEM, Lonza) containing 10% fetal bovine serum (M10). These cells were generated by transfecting HEK293T with an expression vector containing the sequences of the chaperone proteins RTP1A1 and RTP2 and a resistance gene to puromycin, using Lipofectamine 2000.
Odorant molecules were diluted at a concentration of 1 mole/liter (M) into dimethyl sulfoxide (DMSO) to generate stock solutions.
For concentration-response analysis, serial dilutions of the tested molecules were prepared from stock solutions in EMEM plated into 96-well plates.
For the initial deorphanisation screening and dose-response analysis, a Luciferase-based gene reporter assay (Promega, Leiden, The Nederlands) was used. Briefly, cells were platted on Poly-D-lysine-coated 96-well and transfected with a plasmid containing the CRE-luciferase and a plasmid containing the olfactory receptor. Sixteen hours after transfection, the culture medium was replaced by serum-free EMEM containing the tested compounds at a determined concentration. After four hours of incubation at 37° C. degree, cells were lysed and processed for luminescence measurement. Luminescene emission was recorded. Results were expressed as luciferase activity (Relative […] Unit (RLU)) or as percentage of the response induced by 10 μM of the adenylate cyclase activator Forskolin. An empty plasmid is used as negative control.
To test if the amino acids substitution could impact the musk sensitivity, and specificity and to validate the Krautwurst's model, luciferase assays were performed as described previously after transfection of the chimeric OR5A2_variant 1. Cells were treated with semi-logarithmic serial dilutions of musk compounds from the four structurally different groups described earlier.
In each experiment, an empty vector was used as negative control (pEFIBRHO).

The mark [4] stands for this setting: concentration-response analysis, luciferase reporter, values given as negative (log) numbers, Non Active = no activation after testing, read-out: calculated EC50, OR5AN1 (converted).
Setting [5] is: concentration-response analysis, luciferase reporter, values given as negative (log) numbers, read-out: calculated EC50, OR5A2 (converted).

Each structure is given as a SMILES string. Where two headings read alike, the source gives them in different places.

Take `CC(=O)c1c(C)c([N+](=O)[O-])c(C(C)(C)C)c([N+](=O)[O-])c1C` [Musk Ketone, 4-tert-butyl-2,6-dimethyl-3,5-dinitroacetophenone]: the EC50 in assay [1] (setting [4]) was 0.288 µM; in assay [2] (setting [5]), 107 µM. Besides, the “activation of OR5A2 (OR5A2_variant 1), concentration-response” value (shortened to “activation of OR5A2”) in assay [2] is “shows dose response curves”. Further, the “activation of chimeric OR5A2_variant 1, concentration-response” value in assay [3] was “shows dose response curves”.
With `Cc1c([N+](=O)[O-])c(C)c([N+](=O)[O-])c(C(C)(C)C)c1[N+](=O)[O-]` [Musk Xylene, 1-tert-butyl-3,5-dimethyl-2,4,6-trinitrobenzene], the EC50 in assay [1] was 0.661 µM. Further, in assay [2], the EC50 is 1.86 µM and the “activation of OR5A2” value is recorded as “shows dose response curves”. Besides, the “activation of chimeric OR5A2_variant 1, concentration-response” value in assay [3] was “shows dose response curves”.
For `O=C1CCC/C=C\CCCCCCCCCC1` [Velvione], the figures for the EC50 in assay [1] (setting [4]) and in assay [2] (setting [5]) were 49 µM and 28.8 µM, respectively. In addition, in assay [2], the “activation of OR5A2” value is recorded as “shows dose response curves”. Besides, in assay [3], the “activation of chimeric OR5A2_variant 1, concentration-response” value is “shows dose response curves”.
